These results are taken from the NIST ThermoML archive (doi:10.1016/j.fluid.2006.07.005).

The conditions of data set [1]: DTA.
A short description of data set [2]: Molar enthalpy of transition or fusion. The following applies: DSC.

Molecules are shown by their SMILES. Numbers after ± are expanded uncertainties.

Regarding `CCCCCCOCn1cc[n+](COCCCCCC)c1.F[B-](F)(F)F`, the Triple point temperature in data set [1] (Crystal 1) was 309.5 ± 6.2 K; in data set [1] (Crystal 2), 243.6 ± 4.9 K; in data set [1] (Crystal 3), 142.6 ± 2.9 K. In addition, the “Molar enthalpy of transition or fusion” value in data set [2] (Crystal 1) was found to be 3.06 ± 0.12 kcal/mol; in data set [2] (Crystal 2), 0.167 ± 0.0717 kcal/mol; in data set [2] (Crystal 3) it was 0.478 ± 0.0717 kcal/mol.

Take `CCCCCCOCn1cc[n+](COCCCCCC)c1.O=S(=O)([N-]S(=O)(=O)C(F)(F)F)C(F)(F)F`: in data set [1] (Crystal 1), the Triple point temperature is listed as 273.8 ± 5.5 K. Also, the Glass transition temperature in data set [1] (Glass) is -81.3 ± 3.9 °C. Moreover, in data set [2] (Crystal 1), the “Molar enthalpy of transition or fusion” value came out at 3.82 ± 0.12 kcal/mol.
